{"source": "paper PMC10762177", "about": "“Novel betulin derivatives as multidrug reversal agents targeting P-glycoprotein” (Scientific Reports, 2024)", "key": {"[1]": {"system": "K562/Dox cells", "assay": "Doxorubicin resistance reversal assay in K562/Dox (MTT)", "conditions": "K562/Dox", "description": "Simultaneously, viability controls were run with no addition of the dissolution solvent. The cells were incubated at 37 °C at 5% CO2 for 48 h and the same protocol described above was followed. The potency of the compounds was established by means of the fold reversal (FR) values calculated from dividing the IC50 of Dox alone by the IC50 of Dox with different concentrations of each compound tested."}, "[2]": {"target": "T1, P-gp (Homo sapiens, UniProt P08183)", "T1 sequence (P08183 whole entry)": "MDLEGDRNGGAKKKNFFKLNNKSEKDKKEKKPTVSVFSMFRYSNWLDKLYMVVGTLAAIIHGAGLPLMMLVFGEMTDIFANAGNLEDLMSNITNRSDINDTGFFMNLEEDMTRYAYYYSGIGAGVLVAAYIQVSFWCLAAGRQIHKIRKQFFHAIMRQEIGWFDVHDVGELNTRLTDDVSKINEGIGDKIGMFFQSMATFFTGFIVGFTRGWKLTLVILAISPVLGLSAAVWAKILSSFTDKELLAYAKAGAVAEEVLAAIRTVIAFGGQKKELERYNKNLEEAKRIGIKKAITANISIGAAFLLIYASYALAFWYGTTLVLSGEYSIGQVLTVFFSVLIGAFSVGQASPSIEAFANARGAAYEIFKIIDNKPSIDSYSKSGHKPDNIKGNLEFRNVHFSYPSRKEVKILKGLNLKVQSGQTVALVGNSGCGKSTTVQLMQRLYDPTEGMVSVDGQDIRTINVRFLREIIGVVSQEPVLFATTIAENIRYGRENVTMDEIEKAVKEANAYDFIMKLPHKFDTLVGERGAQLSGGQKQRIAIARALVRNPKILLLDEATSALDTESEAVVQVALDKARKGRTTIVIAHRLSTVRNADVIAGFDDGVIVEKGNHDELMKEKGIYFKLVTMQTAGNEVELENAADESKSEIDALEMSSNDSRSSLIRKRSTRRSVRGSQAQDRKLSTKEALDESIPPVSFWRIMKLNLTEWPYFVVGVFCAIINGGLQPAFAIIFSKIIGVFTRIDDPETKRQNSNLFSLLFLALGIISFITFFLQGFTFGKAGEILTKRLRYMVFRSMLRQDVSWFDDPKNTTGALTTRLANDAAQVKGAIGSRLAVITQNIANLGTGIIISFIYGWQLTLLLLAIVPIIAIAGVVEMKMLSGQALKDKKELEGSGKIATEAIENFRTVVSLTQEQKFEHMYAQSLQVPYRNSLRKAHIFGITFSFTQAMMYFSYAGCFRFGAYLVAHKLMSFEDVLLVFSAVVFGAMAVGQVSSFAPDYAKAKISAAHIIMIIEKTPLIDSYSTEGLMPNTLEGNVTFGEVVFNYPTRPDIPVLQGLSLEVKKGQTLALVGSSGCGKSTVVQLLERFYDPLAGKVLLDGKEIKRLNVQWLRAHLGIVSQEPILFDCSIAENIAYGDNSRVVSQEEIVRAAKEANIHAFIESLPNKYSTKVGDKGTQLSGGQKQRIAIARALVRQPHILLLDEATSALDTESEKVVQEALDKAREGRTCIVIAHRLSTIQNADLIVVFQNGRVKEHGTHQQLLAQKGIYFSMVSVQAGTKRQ", "conditions": "Rho123 accumulation, K562/Dox; cited from earlier work"}, "[3]": {"target": "T1, P-gp", "assay": "Rhodamine 123 intracellular accumulation assay in K562/Dox (flow cytometry)", "conditions": "Rho123, K562/Dox"}}}
{"smiles": "C=C(C)[C@@H]1CC[C@]2(CO)CC[C@]3(C)[C@H](CC[C@@H]4[C@@]5(C)CC[C@H](O)C(C)(C)[C@@H]5CC[C@]43C)[C@@H]12", "note": "[Compound 1, betulin]", "values": [{"measurement": "MEC, Dox resistance reversal", "setting": "[1]", "value": 0.39, "unit": "µM"}, {"measurement": "MEC (minimum effective concentration)", "setting": "[2]", "value": 1.56, "unit": "µM"}, {"measurement": "FAR (fluorescence activity ratio)", "setting": "[3]; 0.78 µM", "value": "1.01 ± 0.07"}, {"measurement": "FAR (fluorescence activity ratio)", "setting": "[3]; 1.56 µM", "value": "1.12 ± 0.03"}, {"measurement": "FAR (fluorescence activity ratio)", "setting": "[3]; 3.12 µM", "value": "1.23 ± 0.04"}, {"measurement": "FAR (fluorescence activity ratio)", "setting": "[3]; 6.25 µM", "value": "1.32 ± 0.06"}, {"measurement": "FAR (fluorescence activity ratio)", "setting": "[3]; 12.50 µM", "value": "1.80 ± 0.08"}, {"measurement": "FAR (fluorescence activity ratio)", "setting": "[3]; 25 µM", "value": "2.34 ± 0.19"}, {"measurement": "FAR (fluorescence activity ratio)", "setting": "[3]; 50 µM", "value": "2.77 ± 0.36"}]}
